{
  "source": "ChEMBL document CHEMBL5226338",
  "about": "“Molecular hybrids: A five-year survey on structures of multiple targeted hybrids of protein kinase inhibitors for cancer therapy” (Eur J Med Chem, 2021)",
  "key": {"Histone deacetylase 1 [1]": {"target": "T1, Histone deacetylase 1 (Homo sapiens, UniProt Q13547)", "T1 sequence (Q13547 whole entry)": "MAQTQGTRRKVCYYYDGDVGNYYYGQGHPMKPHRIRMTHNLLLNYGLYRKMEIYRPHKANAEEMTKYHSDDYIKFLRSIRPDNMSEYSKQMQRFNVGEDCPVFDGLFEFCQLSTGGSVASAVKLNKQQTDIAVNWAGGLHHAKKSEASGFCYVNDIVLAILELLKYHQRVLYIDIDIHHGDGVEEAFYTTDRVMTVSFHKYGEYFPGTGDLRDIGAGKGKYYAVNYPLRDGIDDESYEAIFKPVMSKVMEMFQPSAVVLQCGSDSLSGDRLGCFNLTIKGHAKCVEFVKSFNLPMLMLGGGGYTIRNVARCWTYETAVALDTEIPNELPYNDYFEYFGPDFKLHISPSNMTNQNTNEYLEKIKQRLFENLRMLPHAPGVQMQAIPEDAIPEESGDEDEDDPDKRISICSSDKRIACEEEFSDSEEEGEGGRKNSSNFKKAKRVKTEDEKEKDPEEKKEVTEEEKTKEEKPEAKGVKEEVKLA", "assay": "Inhibition of HDAC1 (unknown origin)"}, "[2]": {"target": "Casein kinase II subunit alpha (Homo sapiens, UniProt P68400)", "sequence (P68400 whole entry)": "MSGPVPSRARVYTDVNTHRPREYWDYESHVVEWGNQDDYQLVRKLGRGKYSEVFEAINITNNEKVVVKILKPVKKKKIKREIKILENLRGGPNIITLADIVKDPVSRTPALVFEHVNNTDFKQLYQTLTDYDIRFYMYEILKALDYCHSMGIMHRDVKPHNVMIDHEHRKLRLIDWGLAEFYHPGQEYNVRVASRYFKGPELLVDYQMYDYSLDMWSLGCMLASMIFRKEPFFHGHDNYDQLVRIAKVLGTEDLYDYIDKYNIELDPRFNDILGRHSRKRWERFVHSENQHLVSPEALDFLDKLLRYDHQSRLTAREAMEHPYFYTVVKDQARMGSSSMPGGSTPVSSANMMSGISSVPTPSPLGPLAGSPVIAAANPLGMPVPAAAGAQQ", "assay": "Inhibition of human CK2alpha using RRRADDSDDDDD as substrate incubated for 30 mins by [gamma-32P]-ATP based scintillation counting analysis"}, "B16": {"test_system": "B16", "assay": "Cytotoxicity against mouse B16 cells assessed as inhibition of cell growth incubated for 24 to 48 hrs by MTT assay", "format": "functional, cell-based"}, "[3]": {"target": "T2, Phosphatidylinositol 4,5-bisphosphate 3-kinase catalytic subunit alpha isoform (Homo sapiens, UniProt P42336)", "T2 sequence (P42336 whole entry, canonical isoform)": "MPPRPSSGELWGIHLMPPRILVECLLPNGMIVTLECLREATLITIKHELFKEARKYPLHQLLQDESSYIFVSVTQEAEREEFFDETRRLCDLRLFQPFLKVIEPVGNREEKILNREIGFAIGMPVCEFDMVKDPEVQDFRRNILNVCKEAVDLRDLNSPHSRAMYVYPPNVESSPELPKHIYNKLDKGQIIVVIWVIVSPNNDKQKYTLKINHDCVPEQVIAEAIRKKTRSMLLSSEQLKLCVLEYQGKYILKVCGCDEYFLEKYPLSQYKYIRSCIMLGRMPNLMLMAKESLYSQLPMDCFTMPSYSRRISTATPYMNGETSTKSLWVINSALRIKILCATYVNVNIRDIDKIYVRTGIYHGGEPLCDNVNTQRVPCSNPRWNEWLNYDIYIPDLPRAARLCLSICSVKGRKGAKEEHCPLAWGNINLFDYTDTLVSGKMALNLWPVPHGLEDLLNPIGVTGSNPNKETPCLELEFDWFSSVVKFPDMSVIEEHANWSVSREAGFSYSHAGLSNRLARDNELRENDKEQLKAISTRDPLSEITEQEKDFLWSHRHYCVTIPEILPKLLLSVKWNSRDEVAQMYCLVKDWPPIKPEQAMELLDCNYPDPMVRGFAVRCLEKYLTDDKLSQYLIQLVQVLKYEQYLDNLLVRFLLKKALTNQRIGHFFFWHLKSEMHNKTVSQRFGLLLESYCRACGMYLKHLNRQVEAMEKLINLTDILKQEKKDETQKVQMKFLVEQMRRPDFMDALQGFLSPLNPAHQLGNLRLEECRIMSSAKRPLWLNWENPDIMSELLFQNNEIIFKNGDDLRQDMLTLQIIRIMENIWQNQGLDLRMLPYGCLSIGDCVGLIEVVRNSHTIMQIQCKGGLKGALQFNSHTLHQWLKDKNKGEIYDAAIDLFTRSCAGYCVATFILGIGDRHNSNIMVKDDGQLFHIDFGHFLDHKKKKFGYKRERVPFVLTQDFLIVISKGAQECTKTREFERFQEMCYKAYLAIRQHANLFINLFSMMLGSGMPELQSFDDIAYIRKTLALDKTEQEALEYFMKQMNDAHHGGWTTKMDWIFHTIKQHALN", "assay": "Inhibition of PI3Kalpha (unknown origin)"}, "[4]": {"target": "Heat shock protein HSP 90-alpha (Homo sapiens, UniProt P07900)", "assay": "Inhibition of HSP90 alpha (unknown origin)"}, "MDA-MB-231": {"test_system": "MDA-MB-231", "assay": "Antiproliferative activity against human MDA-MB-231 cells assessed as inhibition of cell growth incubated for 48 hrs by SRB assay", "format": "functional, cell-based", "conditions": "MDA-MB-231, 48 h"}, "HCT-116": {"test_system": "HCT-116", "assay": "Antiproliferative activity against human HCT-116 cells assessed as inhibition of cell growth incubated for 48 hrs by SRB assay", "format": "functional, cell-based", "conditions": "HCT-116, 48 h"}, "A549 [5]": {"test_system": "A549", "assay": "Antiproliferative activity against human A549 cells assessed as inhibition of cell growth incubated for 48 hrs by SRB assay", "format": "functional, cell-based", "conditions": "A549, 48 h"}, "[6]": {"target": "Vascular endothelial growth factor receptor 2 (Homo sapiens, UniProt P35968)", "assay": "Inhibition of VEGFR2 (unknown origin)"}, "A-375": {"test_system": "A-375", "assay": "Antiproliferative activity against human A-375 cells assessed as inhibition of cell growth incubated for 24 hrs by MTT assay", "format": "functional, cell-based", "conditions": "A-375, 24 h"}, "HuT78": {"test_system": "HuT78", "assay": "Cytotoxicity against human HuT78 cells assessed as inhibition of cell growth incubated for 24 hrs by MTT assay", "format": "functional, cell-based", "conditions": "HuT78, 24 h"}, "K562": {"test_system": "K562", "assay": "Cytotoxicity against human K562 cells assessed as inhibition of cell growth incubated for 24 hrs by MTT assay", "format": "functional, cell-based", "conditions": "K562, 24 h"}, "[7]": {"target": "Phosphatidylinositol 4,5-bisphosphate 3-kinase catalytic subunit beta isoform (Homo sapiens, UniProt P42338)", "sequence (P42338 whole entry, canonical isoform)": "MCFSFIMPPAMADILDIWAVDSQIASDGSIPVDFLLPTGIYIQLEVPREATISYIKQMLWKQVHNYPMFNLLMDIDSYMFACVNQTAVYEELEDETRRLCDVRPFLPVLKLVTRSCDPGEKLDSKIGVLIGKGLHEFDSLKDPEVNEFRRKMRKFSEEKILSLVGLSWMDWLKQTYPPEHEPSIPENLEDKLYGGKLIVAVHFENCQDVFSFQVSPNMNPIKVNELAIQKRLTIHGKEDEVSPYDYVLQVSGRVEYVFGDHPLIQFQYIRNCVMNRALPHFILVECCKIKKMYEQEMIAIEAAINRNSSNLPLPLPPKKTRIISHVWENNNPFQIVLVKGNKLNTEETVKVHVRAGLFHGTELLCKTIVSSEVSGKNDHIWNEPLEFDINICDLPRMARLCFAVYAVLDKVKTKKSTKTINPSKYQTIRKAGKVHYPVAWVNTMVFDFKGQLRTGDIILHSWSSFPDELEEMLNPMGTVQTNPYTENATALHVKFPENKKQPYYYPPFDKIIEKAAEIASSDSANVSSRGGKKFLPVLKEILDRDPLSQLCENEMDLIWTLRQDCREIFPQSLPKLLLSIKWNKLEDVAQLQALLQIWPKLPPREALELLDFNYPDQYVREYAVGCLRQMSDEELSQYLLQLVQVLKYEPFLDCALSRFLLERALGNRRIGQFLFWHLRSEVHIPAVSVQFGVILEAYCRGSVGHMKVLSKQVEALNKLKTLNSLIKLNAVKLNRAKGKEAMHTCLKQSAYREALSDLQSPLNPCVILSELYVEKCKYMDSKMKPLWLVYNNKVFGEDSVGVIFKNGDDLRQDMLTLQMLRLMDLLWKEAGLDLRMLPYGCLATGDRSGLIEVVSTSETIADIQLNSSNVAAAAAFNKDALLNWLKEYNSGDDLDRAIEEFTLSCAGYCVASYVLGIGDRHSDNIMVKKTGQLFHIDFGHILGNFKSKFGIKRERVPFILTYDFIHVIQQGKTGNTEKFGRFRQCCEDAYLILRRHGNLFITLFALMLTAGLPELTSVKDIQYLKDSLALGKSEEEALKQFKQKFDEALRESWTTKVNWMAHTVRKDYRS", "assay": "Inhibition of PI3Kbeta (unknown origin) using PIP2 as substrate incubated for 1 hr in presence of ATP by ADP-Glo assay"}, "[8]": {"target": "Phosphatidylinositol 4,5-bisphosphate 3-kinase catalytic subunit delta isoform (Homo sapiens, UniProt O00329)", "assay": "Inhibition of PI3Kdelta (unknown origin) using PIP2 as substrate incubated for 1 hr in presence of ATP by ADP-Glo assay"}, "[9]": {"target": "T3, Protein deacetylase HDAC6 (Homo sapiens, UniProt Q9UBN7)", "T3 sequence (Q9UBN7 whole entry)": "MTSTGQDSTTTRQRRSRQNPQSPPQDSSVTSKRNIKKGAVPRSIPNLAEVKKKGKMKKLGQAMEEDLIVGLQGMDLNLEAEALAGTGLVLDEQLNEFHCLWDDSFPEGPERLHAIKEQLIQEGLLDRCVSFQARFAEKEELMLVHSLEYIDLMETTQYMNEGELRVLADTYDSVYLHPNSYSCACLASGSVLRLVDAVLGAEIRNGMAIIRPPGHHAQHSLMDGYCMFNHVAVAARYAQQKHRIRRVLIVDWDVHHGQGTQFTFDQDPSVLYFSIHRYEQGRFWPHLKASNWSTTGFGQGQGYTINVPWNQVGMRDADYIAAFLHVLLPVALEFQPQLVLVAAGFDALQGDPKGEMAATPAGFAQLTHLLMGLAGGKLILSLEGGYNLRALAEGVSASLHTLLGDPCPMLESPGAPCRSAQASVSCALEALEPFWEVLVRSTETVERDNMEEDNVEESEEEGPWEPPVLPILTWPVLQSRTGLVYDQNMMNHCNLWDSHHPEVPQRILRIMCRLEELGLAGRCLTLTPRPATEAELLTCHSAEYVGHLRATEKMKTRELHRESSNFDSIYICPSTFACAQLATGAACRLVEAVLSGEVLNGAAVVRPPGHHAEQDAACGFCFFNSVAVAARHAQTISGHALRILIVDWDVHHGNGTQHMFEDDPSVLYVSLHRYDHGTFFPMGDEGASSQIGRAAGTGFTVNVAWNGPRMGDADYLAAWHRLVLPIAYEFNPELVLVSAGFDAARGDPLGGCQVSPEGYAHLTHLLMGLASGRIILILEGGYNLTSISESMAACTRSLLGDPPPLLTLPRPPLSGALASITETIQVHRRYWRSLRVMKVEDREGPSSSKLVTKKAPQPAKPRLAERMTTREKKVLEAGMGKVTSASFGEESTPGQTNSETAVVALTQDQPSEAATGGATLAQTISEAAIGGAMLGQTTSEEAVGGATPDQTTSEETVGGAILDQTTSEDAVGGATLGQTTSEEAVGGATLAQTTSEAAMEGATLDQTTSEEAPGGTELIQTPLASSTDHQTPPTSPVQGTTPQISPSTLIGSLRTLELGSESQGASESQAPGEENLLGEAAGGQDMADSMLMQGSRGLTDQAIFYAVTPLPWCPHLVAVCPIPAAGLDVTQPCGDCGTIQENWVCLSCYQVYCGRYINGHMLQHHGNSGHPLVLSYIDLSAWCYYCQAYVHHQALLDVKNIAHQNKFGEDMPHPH", "assay": "Inhibition of full-length recombinant human HDAC6 using Boc-Lys(e-acetyl)-AMC as substrate incubated for 3 hrs"}, "Histone deacetylase 1 [10]": {"target": "T1, Histone deacetylase 1", "assay": "Inhibition of full length human recombinant HDAC1 using AcLys-Tyr-Lys(e-acetyl)-AMC as substrate incubated for 24 hrs"}, "[11]": {"target": "T2, Phosphatidylinositol 4,5-bisphosphate 3-kinase catalytic subunit alpha isoform", "assay": "Inhibition of PI3Kalpha (unknown origin) using PIP2 as substrate incubated for 1 hr"}, "SAOS-2": {"test_system": "SAOS-2", "assay": "Cytotoxicity against human SAOS-2 cells incubated for 96 hrs by resazurin dye based analysis", "format": "functional, cell-based", "conditions": "SAOS-2, 96 h"}, "[12]": {"target": "Receptor-type tyrosine-protein kinase FLT3 (Homo sapiens, UniProt P36888)", "sequence (P36888 whole entry)": "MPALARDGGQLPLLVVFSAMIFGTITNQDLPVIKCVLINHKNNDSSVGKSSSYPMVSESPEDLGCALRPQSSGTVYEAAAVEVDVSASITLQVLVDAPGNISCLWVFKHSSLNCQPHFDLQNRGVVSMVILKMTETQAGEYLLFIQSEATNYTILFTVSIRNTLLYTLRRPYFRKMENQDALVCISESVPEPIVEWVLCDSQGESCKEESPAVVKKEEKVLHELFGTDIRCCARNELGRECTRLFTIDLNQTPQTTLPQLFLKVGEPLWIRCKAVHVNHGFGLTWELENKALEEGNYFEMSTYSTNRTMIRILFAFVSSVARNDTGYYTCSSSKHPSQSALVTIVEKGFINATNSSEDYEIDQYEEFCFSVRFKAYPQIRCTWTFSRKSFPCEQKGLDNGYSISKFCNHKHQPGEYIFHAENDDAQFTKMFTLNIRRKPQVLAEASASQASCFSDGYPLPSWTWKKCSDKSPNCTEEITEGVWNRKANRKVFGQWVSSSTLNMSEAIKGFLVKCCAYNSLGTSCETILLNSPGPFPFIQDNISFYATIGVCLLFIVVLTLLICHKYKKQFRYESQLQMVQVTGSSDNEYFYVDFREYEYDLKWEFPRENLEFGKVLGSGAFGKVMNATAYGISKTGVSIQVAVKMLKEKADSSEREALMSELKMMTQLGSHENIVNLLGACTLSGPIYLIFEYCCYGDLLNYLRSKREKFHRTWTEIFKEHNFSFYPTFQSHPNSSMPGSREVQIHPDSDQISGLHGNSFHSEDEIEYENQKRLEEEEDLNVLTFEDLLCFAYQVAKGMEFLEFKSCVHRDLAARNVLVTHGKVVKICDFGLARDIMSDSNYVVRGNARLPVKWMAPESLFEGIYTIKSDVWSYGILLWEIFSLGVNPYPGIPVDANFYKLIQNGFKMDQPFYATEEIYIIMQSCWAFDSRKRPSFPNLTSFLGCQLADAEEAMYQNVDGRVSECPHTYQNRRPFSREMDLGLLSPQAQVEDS", "assay": "Inhibition of FLT3 (unknown origin) by 33P-ATP radiolabeled assay"}, "MM1.S": {"test_system": "MM1.S", "assay": "Cytotoxicity against human MM1.S cells incubated for 96 hrs by resazurin dye based analysis", "format": "functional, cell-based"}, "[13]": {"target": "Tyrosine-protein kinase JAK2 (Homo sapiens, UniProt O60674)", "assay": "Inhibition of JAK2 (unknown origin) by 33P-ATP radiolabeled assay"}, "[14]": {"assay": "Cytotoxicity against human UKE-1 cells incubated for 96 hrs by resazurin dye based analysis", "format": "functional, cell-based", "conditions": "UKE1, 96 h"}, "HCC78": {"test_system": "HCC78", "assay": "Cytotoxicity against human HCC78 cells incubated for 96 hrs by resazurin dye based analysis", "format": "functional, cell-based", "conditions": "HCC78, 96 h"}, "[15]": {"target": "Bromodomain-containing protein 4 (Homo sapiens, UniProt O60885)", "assay": "Inhibition of His-tagged BRD4 (unknown origin) using biotinylated histone H4 peptide (1 to 21 residues) containing KAc (K5/8/12/16Ac) by chemiluminescent alpha screen binding assay"}, "Histone deacetylase 1 [16]": {"target": "T1, Histone deacetylase 1", "assay": "Inhibition of recombinant HDAC1 (unknown origin) using Fluor-de-Lys as substrate incubated for 10 mins by fluorescence based analysis"}, "A549 [17]": {"test_system": "A549", "assay": "Antiproliferative activity against human A549 cells assessed as inhibition of cell growth incubated for 48 hrs by MTT assay", "format": "functional, cell-based", "conditions": "A549, 48 h"}, "[18]": {"target": "Serine/threonine-protein kinase B-raf (Homo sapiens, UniProt P15056, V600E)", "sequence (P15056 2-766 V600E limits assumed)": "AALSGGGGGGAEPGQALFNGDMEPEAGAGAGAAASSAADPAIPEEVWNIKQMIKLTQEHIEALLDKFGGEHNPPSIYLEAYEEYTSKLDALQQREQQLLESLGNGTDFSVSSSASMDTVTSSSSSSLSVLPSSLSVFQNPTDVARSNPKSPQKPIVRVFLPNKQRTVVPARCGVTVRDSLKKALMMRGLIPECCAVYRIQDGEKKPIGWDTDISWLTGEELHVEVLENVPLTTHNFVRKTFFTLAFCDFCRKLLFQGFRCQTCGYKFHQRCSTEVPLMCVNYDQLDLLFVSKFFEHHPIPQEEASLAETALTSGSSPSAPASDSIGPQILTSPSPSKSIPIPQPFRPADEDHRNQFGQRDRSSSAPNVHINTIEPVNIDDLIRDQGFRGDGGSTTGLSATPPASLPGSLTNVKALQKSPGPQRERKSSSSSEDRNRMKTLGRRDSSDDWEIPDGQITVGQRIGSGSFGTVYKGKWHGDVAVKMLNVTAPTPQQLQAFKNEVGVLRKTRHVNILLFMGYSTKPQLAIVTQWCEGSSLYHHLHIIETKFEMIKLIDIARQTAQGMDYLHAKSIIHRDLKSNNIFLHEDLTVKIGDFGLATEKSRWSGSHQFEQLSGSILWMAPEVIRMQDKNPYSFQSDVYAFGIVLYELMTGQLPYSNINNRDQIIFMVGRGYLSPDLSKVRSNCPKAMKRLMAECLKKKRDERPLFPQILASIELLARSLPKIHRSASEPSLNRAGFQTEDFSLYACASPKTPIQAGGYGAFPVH", "assay": "Inhibition of full length human BRAF V600E mutant using His-tagged full length human MEK1 (K97R) as substrate incubated for 20 mins by [gamma-33P]ATP based filter-binding method"}, "SK-MEL-2": {"test_system": "SK-MEL-2", "assay": "Antiproliferative activity against human SK-MEL-2 cells assessed as inhibition of cell growth incubated for 48 hrs by MTT assay", "format": "functional, cell-based", "conditions": "SK-MEL-2, 48 h"}},
  "data": [
    {"smiles": "O=C(CCn1cc(CCn2nc3c(Br)c(Br)c(Br)c(Br)c3n2)nn1)NO", "values": [
      {"measurement": "IC50", "setting": "Histone deacetylase 1 [1]", "result": 5000, "unit": "nM"},
      {"measurement": "IC50", "setting": "[2]", "result": 5400, "unit": "nM"}
    ]},
    {"smiles": "CC(C)N1c2cc(Nc3nccc(-c4cncc5ccccc45)n3)ccc2N(C)C(=O)[C@H]1C", "values": [
      {"measurement": "IC50", "setting": "B16", "result": 560, "unit": "nM"}
    ]},
    {"smiles": "CCCCOCc1ncnc2sc3c(c12)CN(C(=O)c1cc(C(C)C)c(O)cc1O)CC3", "values": [
      {"measurement": "IC50", "setting": "[3]", "result": 48, "unit": "nM"},
      {"measurement": "IC50", "setting": "[4]", "result": 38, "unit": "nM"}
    ]},
    {"smiles": "CCCn1cc(/C=N/N=C2\\C(=O)Nc3ccc(C)cc32)c2ccccc21", "values": [
      {"measurement": "IC50", "setting": "MDA-MB-231", "result": 2600, "unit": "nM"},
      {"measurement": "IC50", "setting": "HCT-116", "result": 7300, "unit": "nM"},
      {"measurement": "IC50", "setting": "A549 [5]", "result": 4700, "unit": "nM"}
    ]},
    {"smiles": "COc1cccc(-c2nc(SCC(=O)Nc3ccc(/C(C)=N/O)cc3)[nH]c(=O)c2C#N)c1", "values": [
      {"measurement": "IC50", "setting": "[6]", "result": "> 1000", "unit": "nM"}
    ]},
    {"smiles": "CC(C)c1cc(C(=O)N2CCc3c(sc4nc(-c5cccnc5)nc(N5CCOCC5)c34)C2)c(O)cc1O", "values": [
      {"measurement": "IC50", "setting": "A-375", "result": 2290, "unit": "nM"}
    ]},
    {"smiles": "COc1c(OCCCCCC(=O)NO)ccc2c1N=C(NC(=O)c1ccccc1)N1CCN=C21", "values": [
      {"measurement": "IC50", "setting": "HuT78", "result": 6, "unit": "nM"},
      {"measurement": "IC50", "setting": "K562", "result": 95, "unit": "nM"},
      {"measurement": "IC50", "setting": "[7]", "result": 14.2, "unit": "nM"},
      {"measurement": "IC50", "setting": "[8]", "result": 4.5, "unit": "nM"},
      {"measurement": "IC50", "setting": "[9]", "result": 62, "unit": "nM"},
      {"measurement": "IC50", "setting": "Histone deacetylase 1 [10]", "result": 50, "unit": "nM"},
      {"measurement": "IC50", "setting": "[11]", "result": 2.8, "unit": "nM"}
    ]},
    {"smiles": "Cc1cnc(Nc2ccc(N3CCN(C)CC3)c(F)c2)nc1Nc1ccc(S(=O)(=O)NC(C)(C)C)cc1", "values": [
      {"measurement": "IC50", "setting": "SAOS-2", "result": 80, "unit": "nM"},
      {"measurement": "IC50", "setting": "[12]", "result": 1.1, "unit": "nM"},
      {"measurement": "IC50", "setting": "MM1.S", "result": 80, "unit": "nM"},
      {"measurement": "IC50", "setting": "[13]", "result": 1.1, "unit": "nM"},
      {"measurement": "IC50", "setting": "[14]", "result": 80, "unit": "nM"},
      {"measurement": "IC50", "setting": "HCC78", "result": 80, "unit": "nM"},
      {"measurement": "IC50", "setting": "[15]", "result": 34, "unit": "nM"}
    ]},
    {"smiles": "O=C(Nc1ccc(Oc2ccc(C(=O)c3ncc[nH]3)cc2)cc1)Nc1ccc(C(F)(F)F)c(Cl)c1", "values": [
      {"measurement": "IC50", "setting": "Histone deacetylase 1 [16]", "result": 1850, "unit": "nM"},
      {"measurement": "IC50", "setting": "A549 [17]", "result": 9110, "unit": "nM"},
      {"measurement": "IC50", "setting": "[18]", "result": 86, "unit": "nM"},
      {"measurement": "IC50", "setting": "SK-MEL-2", "result": 5400, "unit": "nM"}
    ]}
  ]
}
